Experiments:
Assay in all cases: relative viability (nuclei count vs DMSO), 5 days (fraction); higher = more cells survive
[1] = compound: Cc1nc(Nc2ncc(C(=O)Nc3c(C)cccc3Cl)s2)cc(N2CCN(CCO)CC2)n1 [Dasatinib] + C[C@]1(O)C[C@@H](c2nc(-c3ccc4ccc(-c5ccccc5)nc4c3)c3c(N)nccn32)C1 [Linsitinib] (partner 1 µM)
Summary of the method: (§1)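 Relative viability divides the nuclei count in treated wells by that in vehicle wells. Lung cancer cell lines were seeded in 1536-well plates, dosed by pin tool the next day, and fixed and stained after 5 days in one step with final 0.05% Triton X-100, 1% formaldehyde and 1 ug/ml Hoechst. Dosing was a single drug or a fixed anchor-drug dose plus five library-drug doses (not always all listed) in √10 steps, and values are medians of duplicate plates imaged at 4×.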

[2] = compound: Cc1nc(Nc2ncc(C(=O)Nc3c(C)cccc3Cl)s2)cc(N2CCN(CCO)CC2)n1 [Dasatinib] + Nc1nc2[nH]cc(CCc3ccc(C(=O)N[C@@H](CCC(=O)O)C(=O)O)cc3)c2c(=O)[nH]1 [Pemetrexed] (partner 0.2 µM)
Summary of the method: as §1

[3] = compound: Cc1ccc(C(=O)Nc2cccc(C(F)(F)F)c2)cc1Nc1cncc(C(N)=O)c1 [ALW-II-49-7] + COc1cc2c(Oc3ccc(NC(=O)C4(C(=O)Nc5ccc(F)cc5)CC4)cc3F)ccnc2cc1OCCCN1CCOCC1 [Foretinib] (partner 0.25 µM)
Summary of the method: as §1

[4] = compound: Cc1nc(Nc2ncc(C(=O)Nc3c(C)cccc3Cl)s2)cc(N2CCN(CCO)CC2)n1 [Dasatinib] + COc1cc2c(Oc3ccc(NC(=O)C4(C(=O)Nc5ccc(F)cc5)CC4)cc3F)ccnc2cc1OCCCN1CCOCC1 [Foretinib] (partner 0.25 µM)
Summary of the method: as §1

| Cell Line | relative viability ([1]; first compound 0.005 µM) | relative viability ([1]; first compound 0.01581 µM) | relative viability ([1]; first compound 0.05 µM) | relative viability ([1]; first compound 0.1581 µM) | relative viability ([1]; first compound 0.5 µM) | relative viability ([2]; first compound 0.005 µM) | relative viability ([2]; first compound 0.01581 µM) | relative viability ([2]; first compound 0.05 µM) | relative viability ([2]; first compound 0.1581 µM) | relative viability ([2]; first compound 0.5 µM) | relative viability ([3]; first compound 0.08 µM) | relative viability ([3]; first compound 0.253 µM) | relative viability ([3]; first compound 0.8 µM) | relative viability ([3]; first compound 2.53 µM) | relative viability ([3]; first compound 8 µM) | relative viability ([4]; first compound 0.005 µM) | relative viability ([4]; first compound 0.01581 µM) | relative viability ([4]; first compound 0.05 µM) | relative viability ([4]; first compound 0.1581 µM) | relative viability ([4]; first compound 0.5 µM) |
| --- | --- | --- | --- | --- | --- | --- | --- | --- | --- | --- | --- | --- | --- | --- | --- | --- | --- | --- | --- | --- |
| PC-3 [JPC-3] | 0.976 | 0.97 | 1.07 | 1.06 | 0.633 | 1.22 | 1.1 | 1.08 | 0.717 | 0.474 | 0.995 | 1.09 | 1.01 | 1.01 | 1.02 | 1.05 | 1.02 | 1.05 | 0.948 | 0.434 |
| HCC-44 | 0.619 | 0.51 | 0.669 | 0.27 | 0.131 | 0.627 | 0.579 | 0.692 | 0.709 | 0.633 | – | – | – | – | – | – | – | – | – | – |
| NCI-H2405 | 0.699 | 0.392 | 0.336 | 0.253 | 0.167 | 0.852 | 0.65 | 0.422 | 0.229 | 0.22 | 1.03 | 1.06 | 0.998 | 0.847 | 0.895 | 0.983 | 0.714 | 0.564 | 0.304 | 0.233 |
| LXF-289 | 1 | 0.974 | 0.831 | 0.202 | 0.131 | 0.918 | 0.987 | 1.13 | 0.687 | 0.205 | 0.98 | 1.05 | 1 | 1.07 | 1.04 | 1.01 | 0.983 | 0.914 | 0.513 | 0.125 |
| LOU-NH91 | 0.961 | 0.847 | 0.715 | 0.549 | 0.412 | 0.414 | 0.389 | 0.407 | 0.377 | 0.319 | 0.912 | 0.945 | 0.921 | 0.879 | 0.944 | 0.985 | 0.899 | 0.827 | 0.652 | 0.397 |
| A549 | 0.518 | 0.348 | 0.34 | 0.211 | 0.0589 | – | – | – | – | – | 0.918 | 0.92 | 0.78 | 0.961 | 0.824 | 0.876 | 0.817 | 0.59 | 0.3 | 0.119 |
| H3255 | 0.929 | 0.918 | 0.957 | 0.658 | 0.287 | 0.578 | 0.535 | 0.52 | 0.49 | 0.375 | 1.01 | 0.827 | 0.939 | 1.02 | 0.703 | 1.02 | 0.822 | 0.726 | 0.944 | 0.352 |

— the supplement of paper PMC10307832
